Measured values taken from patent US20100190824A1, “Novel Substituted Piperidones as HSP Inducers” (priority 2007, published 2010).

Assays:
HSP70b mRNA [1] = assay: Cellular expression of HSP-70 mRNA in Hela cells (real-time PCR); assay type: cell-based; conditions: fold induction of HSP-70b mRNA relative to the vehicle treated control; 4 hours; normalized to 18S rRNA
Protocol: (§1) Experiments set forth in this section were conducted to determine whether the compounds of the present invention are able to elevate the expression of HSP-70 gene in cells.
(§2) Hela cell-line or primary mixed neurons derived from neonatal rat cerebellum were employed. Induction was carried out for the indicated dose(s) for 4 hours duration and total RNA was isolated. Expression of HSP70b mRNA along-with expression of 18S rRNA was monitored by real-time PCR. HSP70b mRNA expression was normalized relative to the expression of 18S rRNA.
(§3) The results for test compounds were expressed as fold induction of HSP-70 mRNA relative to vehicle treated control and are as shown in Table 2 & 3.

HSP70b mRNA [2] = assay: Cellular expression of HSP-70 mRNA in primary mixed neurons (real-time PCR); assay type: cell-based; conditions: fold induction of HSP70b mRNA relative to vehicle treated control; primary mixed neurons from neonatal rat cerebellum; 4 hours; normalized to 18S rRNA
Protocol: as §1, §2, §3

TNF-α mRNA = assay: Inhibition of LPS-induced TNF-α expression in PMA differentiated THP-1 cells; assay type: cell-based, Human; conditions: LPS (1 ug/ml) and compound for 4 hours, LPS alone as 100%
Protocol: The purpose of the present study was to determine the inhibition of lipopolysaccharide(LPS)-induced TNF-α expression in phorbol merstyl ester (PMA) differentiated THP-1 cells.
Human monocytic leukaemia cell line (THP-1), differentiated into macrophage-like cells by PMA treatment was employed. Differentiated cells were treated with either LPS (1 ug/ml) alone or with LPS (1 ug/ml) and compound for 4 hours. Total RNA was isolated and expression of TNF-αmRNA along-with expression of 18S rRNA was monitored by real-time PCR. TNF-α mRNA expression was normalized relative to the expression of 18S rRNA Considering TNF-α expression for cells treated with LPS alone as 100%; the results for test compounds were expressed as % inhibition of TNF-α expression and are as shown in Table 4

| Structure (SMILES) | HSP Induction in Hela cells (HSP70b mRNA [1]) | HSP Induction in mixed neuron (HSP70b mRNA [2]) | TNF-alpha Inhibition (TNF-α mRNA) |
| --- | --- | --- | --- |
| CCOC(=O)N1CC(=Cc2ccccn2)C(=O)C(C)(C)C1Cc1ccc(OC)cc1 (stereo not shown) [Compound 13, 2-(4-Methoxy-benzyl)-3,3-dimethyl-4-oxo-5-[1-pyridin-2-yl-methylidene]-piperidine-1-carboxylic acid ethyl ester] | (+++) (193-1536 fold) |  |  |
| COc1ccc(CC2N(C(=O)Oc3ccccc3)CC(=Cc3ccccn3)C(=O)C2(C)C)cc1 (stereo not shown) [Compound 14, 2-(4-Methoxy-benzyl)-3,3-dimethyl-4-oxo-5-[1-pyridin-2-yl-methylidene]-piperidine-1-carboxylic acid phenyl ester] | (+++) (193-1536 fold) |  |  |
| COc1ccc(CC2N(C(=O)OCC(C)C)CC(=Cc3ccccn3)C(=O)C2(C)C)cc1 (stereo not shown) [Compound 15, 2-(4-Methoxy-benzyl)-3,3-dimethyl-4-oxo-5-[1-pyridin-2-yl-methylidene]-piperidine-1-carboxylic acid isobutyl ester] | (++++) (>1536 fold) |  |  |
| COc1ccc(CC2N(C(=O)Nc3c(C)cccc3C)CC(=Cc3ccccn3)C(=O)C2(C)C)cc1 (stereo not shown) [Compound 17, 2-(4-Methoxy-benzyl)-3,3-dimethyl-4-oxo-5-[1-pyridin-2-yl-methylidene]-piperidine-1-carboxylic acid (2,6-dimethyl-phenyl)-amde] | (++) (25-192 fold) |  |  |
| CC1(C)CN(Cc2ccccc2)CC(=Cc2cccc(N3CCCCC3)n2)C1=O [Compound 23, 1-Benzyl-3,3-dimethyl-5-[1-(3,4,5,6-tetrahydro-2H-[1,2′]bipyridinyl-6′-yl)-methylidene]-piperidin-4-one] | (+++) (193-1536 fold) |  |  |
| CC1(C)CN(Cc2ccccc2)C(c2ccccc2)C(=Cc2ccccn2)C1=O (stereo not shown) [Compound 25, 1-Benzyl-5,5-dimethyl-2-phenyl-3-[1-pyridin-2-yl-methylidene]-piperidin-4-one] | (++++) (>1536 fold) |  |  |
| CC1(C)CN(Cc2ccccc2)C(c2ccccn2)C(=Cc2cccc(N3CCOCC3)n2)C1=O (stereo not shown) [Compound 28, 1-Benzyl-5,5-dimethyl-3-[1-(6-morpholin-4-yl-pyridin-2-yl)-methylidene]-2,3,5,6-tetrahydro-1H-[2,2′]bipyridinyl-4-one] | (++++) (>1536 fold) |  |  |
| CC1(C)CN(Cc2ccccc2)C(c2ccccn2)C(=Cc2ccccn2)C1=O (stereo not shown) [Compound 29, 1-Benzyl-5,5-dimethyl-3-[1-pyridin-2-yl-methylidene]-2,3,5,6-tetrahydro-1H-[2,2′]bipyridinyl-4-one] | (+++) (193-1536 fold) |  |  |
| CSc1ccc(C=C2C(=O)C(C)(C)CN(Cc3ccccc3)C2c2ccccc2)cc1 (stereo not shown) [Compound 30, 1-Benzyl-5,5-dimethyl-3-[1-(4-methylsulfanyl-phenyl)-methylidene]-2-phenyl-piperidin-4-one] | (+) (4-24 fold) |  |  |
| CC1(C)CN(Cc2ccccc2)C(c2ccccc2)C(=Cc2cccc(N3CCOCC3)n2)C1=O (stereo not shown) [Compound 31, 1-Benzyl-5,5-dimethyl-3-[1-(6-morpholin-4-yl-pyridin-2-yl)-methylidene]-2-phenyl-piperidin-4-one] | (++) (25-192 fold) |  |  |
| CC1(C)CN(Cc2ccccc2)C(c2cccs2)C(=Cc2cccc(N3CCOCC3)n2)C1=O (stereo not shown) [Compound 33, 1-Benzyl-5,5-dimethyl-3-[1-(6-morpholin-4-yl-pyridin-2-yl)-methylidene]-2-thiophen-2-yl-piperidin-4-one] | (+++) (193-1536 fold) |  |  |
| CC1(C)CN(Cc2ccccc2)C(c2ccccn2)C(=Cc2cccc(N3CCCCC3)n2)C1=O (stereo not shown) [Compound 34, 1-Benzyl-5,5-dimethyl-3-[1-(3,4,5,6-tetrahydro-2H-[1,2′]bipyridinyl-6′-yl)-methylidene]-2,3,5,6-tetrahydro-1H-[2,2′]bipyridinyl-4-one] | (++) (25-192 fold) |  |  |
| COc1ccc(CC2N(C(=S)Nc3ccccc3)CC(=Cc3ccccn3)C(=O)C2(C)C)cc1 (stereo not shown) [Compound 60, 2-(4-Methoxy-benzyl)-3,3-dimethyl-4-oxo-5-[1-pyridin-2-yl-methylidene]-piperidine-1-carbothioic acid phenylamide] |  | (++++) (>16 fold) | (+++) (61-80%) |
| CSc1ccc(C2C(=Cc3ccccn3)C(=O)C(C)(C)CN2Cc2cccs2)cc1 (stereo not shown) [Compound 61, 5,5-Dimethyl-2-(4-methylsulfanyl-phenyl)-3-[1-pyridin-2-yl-methylidene]-1-thiophen-2-ylmethyl-piperidin-4-one] |  | (++++) (>16 fold) | (+++) (61-80%) |
| COc1ccc(CN2CC(C)(C)C(=O)C(=Cc3cccc(N4CCOCC4)n3)C2c2ccc(C(F)(F)F)cc2)cc1 (stereo not shown) [Compound 63, 1-(4-Methoxy-benzyl)-5,5-dimethyl-3-[1-(6-morpholin-4-yl-pyridin-2-yl)-methylidene]-2-(4-trifluoromethyl-phenyl)-piperidin-4-one] |  | (++) (5-8 fold) | (++) (41-60%) |
| Cc1cc(N2CC(C)(C)C(=O)C(=Cc3cccc(N4CCOCC4)n3)C2c2ccccc2)no1 (stereo not shown) [Compound 65, 5,5-Dimethyl-1-(5-methyl-isoxazol-3-yl)-3-[1-(6-morpholin-4-yl-pyridin-2-yl)-methylidene]-2-phenyl-piperidin-4-one] |  | (+++) (9-16 fold) | (+++) (61-80%) |
| CC1(C)CN(CCc2cccs2)CC(=Cc2cccc(N3CCOCC3)n2)C1=O [Compound 69, 3,3-Dimethyl-5-[1-(6-morpholin-4-yl-pyridin-2-yl)-methylidene]-1-(2-thiophen-2-yl-ethyl)-piperidin-4-one] |  | (++++) (>16 fold) | (+++) (61-80%) |
| CC1(C)CN(CCc2cccs2)CC(=Cc2ccccn2)C1=O [Compound 79, 3,3-Dimethyl-5-[1-pyridin-2-yl-methylidene]-1-(2-thiophen-2-yl-ethyl)-piperidin-4-one] |  | (+++) (9-16 fold) | (++++) (>80%) |
| CC1(C)CN(Cc2ccco2)C(c2ccccc2)C(=Cc2ccccn2)C1=O (stereo not shown) [Compound 82, 1-Furan-2-ylmethyl-5,5-dimethyl-2-phenyl-3-[1-pyridin-2-yl-methylidene]-piperidin-4-one] |  | (+++) (9-16 fold) | (++++) (>80%) |
| CN1CC(C)(C)C(=O)C(=Cc2ccccn2)C1c1ccccc1 (stereo not shown) [Compound 85, 1,5,5-Trimethyl-2-phenyl-3-[1-pyridin-2-yl-methylidene]-piperidin-4-one] |  | (++) (5-8 fold) | (+) (21-40%) |
| COc1cc(C2C(=Cc3ccccn3)C(=O)C(C)(C)CN2Cc2ccco2)cc(OC)c1OC (stereo not shown) [Compound 90, 1-Furan-2-ylmethyl-5,5-dimethyl-3-[1-pyridin-2-yl-methylidene]-2-(3,4,5-trimethoxy-phenyl)-piperidin-4-one] |  | (+) (2-4 fold) | (++) (41-60%) |
| O=C1C(=Cc2cccc(N3CCOCC3)n2)C(=O)N(Cc2ccccc2)CC1c1ccccc1 (stereo not shown) [Compound 103, 1-Benzyl-3-[1-(6-morpholin-4-yl-pyridin-2-yl)-methylidene]-5-phenyl-piperidine-2,4-dione] |  | (+) (2-4 fold) | (+) (21-40%) |
| CC1(C)C(=O)C(=Cc2ccccn2)CN(C(=S)Nc2ccccc2)C1c1ccc(S(C)(=O)=O)cc1 (stereo not shown) [Compound 105, 2-(4-Methanesulfonyl-phenyl)-3,3-dimethyl-4-oxo-5-[1-pyridin-2-yl-methylidene]-piperidine-1-carbothioic acid phenylamide] |  | (++) (5-8 fold) | (++) (41-60%) |
| CC1(C)CN(Cc2ccccc2)C(c2ccc(S(C)(=O)=O)cc2)C(=Cc2cccc(N3CCOCC3)n2)C1=O (stereo not shown) [Compound 227, 1-Benzyl-2-(4-methanesulfonyl-phenyl)-5,5-dimethyl-3-[1-(6-morpholin-4-yl-pyridin-2-yl)-methylidene]-piperidin-4-one] |  | (++++) (>16 fold) | (++++) (>80%) |
| CC1(C)CN(Cc2ccccc2)C(c2ccc(S(C)(=O)=O)cc2)C(=Cc2ccccn2)C1=O (stereo not shown) [Compound 229, 1-Benzyl-2-(4-methanesulfonyl-phenyl)-5,5-dimethyl-3-[1-pyridin-2-yl-methylidene]-piperidin-4-one] |  | (++) (5-8 fold) | (++++) (>80%) |
| COc1ccc(OC)c(C2C(=Cc3cccc(N4CCN(C)CC4)n3)C(=O)C(C)(C)CN2Cc2ccc(C)cc2)c1 (stereo not shown) [Compound 234, 2-(2,5-Dimethoxy-phenyl)-5,5-dimethyl-1-(4-methyl-benzyl)-3-[1-[6-(4-methyl-piperazin-1-yl)-pyridin-2-yl]-methylidene]-piperidin-4-one] |  | (+++) (9-16 fold) | (+++) (61-80%) |
